Columns and labels:
ventral prostate weight [1] = test: Subcutaneous androgenic potency, ventral prostate weight assay in orchidectomized immature rats (injection daily for seven days); format: in vivo, Sprague-Dawley rats; settings: for Androgenic Potency (activity of corresponding alcohol): ventral prostate weight assay following subcutaneous administration, alcohol of G = 1.0 (assigned), value is for the free alcohol of the listed ester
Method: (§1) Immature (about 21-day-old) Sprague-Dawley rats were orchidectomized under anesthesia, and randomly assignee to groups of ten animals for each dose level of the active undergoing testing. Each active was dissolved in 10% ethanol/sesame oil and administered by gavage (oral) or subcutaneous injection each day for seven days beginning on the date of the orchidectomy. The animals were sacrificed 24 hours after the last dose, and the ventral prostate and seminal vesicles were excised, cleaned of fat and connective tissue, blotted on moist filter paper and weighed to the nearest 0.1 mg. Regression analysis was performed by conventional methods using a PROPHET data management system. Ventral prostate weight was used as the endpoint because it is the sensitive organ to androgenic stimulation.
as §1, with “by” for “by gavage (oral) or”, “mg. See, e.g., Hershberger, L. et al, Myotrophic Activity of 19-nortestosterone And Other Steroids Determined By Modified Levator And Muscle Method, Proc. Soc. Exptl. Bid. Med. 83 175–180 (1953).” for “mg.”, “system. See, e.g., Bliss, C., The Statistics of Bioassay (Academic Press, New York, 1952); Hollister, C., Nucleic Acids Res. 16 1873–75 (1988).” for “system.”
Immature (about 22-day-old) Sprague-Dawley male rats were orchidectomized under anesthesia, and randomly assignee to groups of ten animals for each dose level of the active undergoing testing. […] Illumination was controlled for 14 hour periods of light and 10 hours of darkness.
Each active was administered by subcutaneous injection of 0.6 mg of test material in aqueous suspending vehicle (ASV) and/or an oily vehicle (10% ethanol/sesame oil) on the day of surgery. Testosterone enanthate in sesame oil was used as a standard. The ventral prostate and seminal vesicles were excised, cleaned of fat and connective tissue, blotted on moist filter paper and weighed to the nearest 0.1 mg. Regression analysis was performed by conventional methods using a PROPHET data management system. Ventral prostate weight was used as the endpoint because it is the sensitive organ to androgenic stimulation.

ventral prostate weight [2] = test: Duration of androgenic activity after subcutaneous injection, ventral prostate weight over weeks in orchidectomized immature rats; format: in vivo, Sprague-Dawley rats
Method: as §1, with “was” for “was dissolved in 10% ethanol/sesame oil and”, “by” for “by gavage (oral) or”
Except for testosterone enanthate, each active was formulated in two different carriers: (1) an aqueous suspension and (2) in sesame oil. Testosterone enanthate was formulated using the sesame oil carrier only, because it exists as a liquid at room temperature and could not therefore be formulated as an aqueous suspension.
The carrier used to provide the aqueous suspension was formulated as follows: 1 g benzyl alcohol, 0.5 g sodium carboxylethyl cellulose 50, 0.376 g disodium hydrogen phosphate dihydrate, 1.495 g sodium dihydrogen phosphate dihydrate, with water for injection (WFI) being added to bring volume of the carrier up to 100 ml.
Each formulation was prepared at a concentration of 0.6 mg/0.2 ml.
Immature (about 21-day-old) Sprague-Dawley rats were orchidectomized under anesthesia, and randomly assignee to groups of 40 or more. Animals received a single subcutaneous injection of 0.6 mg of each ester in 0.2 ml of an aqueous suspending carrier and/or oily carrier (10% ethanol/90% sesame oil or ethyl oleate) on the date of the orchidectomy. In cases where the ester was not solid at room temperature, 10% ethanol/sesame oil or ethyl oleate was used as the carrier. In this example, the carrier used to provide the aqueous suspension was formulated as follows: 1 g benzyl alcohol, 0.5 g sodium carboxylethyl cellulose 50, 0.376 g disodium hydrogen phosphate dihydrate, 1.495 g sodium dihydrogen phosphate dihydrate, with water for injection (WFI) being added to bring volume of the carrier up to 100 ml.
Five animals from each group were sacrificed at weekly or biweekly intervals, and the ventral prostate and seminal vesicles were excised, cleaned of fat and connective tissue, blotted on moist filter paper and weighed to the nearest 0.1 mg.
Ventral prostate weight was used as the endpoint because it is the sensitive organ to androgenic stimulation. Regression analysis was performed by conventional methods using the PROPHET data management system previously identified.
Immature (about 21-day-old) Sprague-Dawley rats were orchidectomized under anesthesia, and randomly assignee to groups of 40 or more. Animals received a single subcutaneous injection of 0.6 mg of the undecanoate in 0.2 ml of an aqueous suspending carrier and/or oily carrier (10% ethanol/90% sesame oil containing 5 mg/ml chlorobutanol as a preservative, or ethyloleate) on the date of the orchidectomy. The enanthate ester was formulated using the 10% ethanol/sesame oil or ethyloleate carrier as a first standard, with the 10% ethanol/sesame oil carrier used as a second standard.
In this example, the carrier used to provide the aqueous suspension was formulated as follows: 1 g benzyl alcohol, 0.5 g sodium carboxylethyl cellulose 50, 0.376 g disodium hydrogen phosphate dihydrate, 1.495 g sodium dihydrogen phosphate dihydrate, with water for injection (WFI) being added to bring volume of the carrier up to 100 ml.
Immature (about 21-day-old) Sprague-Dawley rats were orchidectomized under anesthesia, and randomly assignee to groups of 40 or more. […] The enanthate ester was formulated using the 10% ethanol/sesame oil or ethyloleate carrier as a first standard, with the 10% ethanol/sesame oil carrier used as a second standard.

androgen receptor = target: T1, androgen receptor (Rattus norvegicus, UniProt P15207); test: Relative binding affinity to the androgen receptor; settings: from rat prostate; relative to methyltrienolone = 100%; value is for the free alcohol of the listed ester
T1 sequence (P15207 1-902): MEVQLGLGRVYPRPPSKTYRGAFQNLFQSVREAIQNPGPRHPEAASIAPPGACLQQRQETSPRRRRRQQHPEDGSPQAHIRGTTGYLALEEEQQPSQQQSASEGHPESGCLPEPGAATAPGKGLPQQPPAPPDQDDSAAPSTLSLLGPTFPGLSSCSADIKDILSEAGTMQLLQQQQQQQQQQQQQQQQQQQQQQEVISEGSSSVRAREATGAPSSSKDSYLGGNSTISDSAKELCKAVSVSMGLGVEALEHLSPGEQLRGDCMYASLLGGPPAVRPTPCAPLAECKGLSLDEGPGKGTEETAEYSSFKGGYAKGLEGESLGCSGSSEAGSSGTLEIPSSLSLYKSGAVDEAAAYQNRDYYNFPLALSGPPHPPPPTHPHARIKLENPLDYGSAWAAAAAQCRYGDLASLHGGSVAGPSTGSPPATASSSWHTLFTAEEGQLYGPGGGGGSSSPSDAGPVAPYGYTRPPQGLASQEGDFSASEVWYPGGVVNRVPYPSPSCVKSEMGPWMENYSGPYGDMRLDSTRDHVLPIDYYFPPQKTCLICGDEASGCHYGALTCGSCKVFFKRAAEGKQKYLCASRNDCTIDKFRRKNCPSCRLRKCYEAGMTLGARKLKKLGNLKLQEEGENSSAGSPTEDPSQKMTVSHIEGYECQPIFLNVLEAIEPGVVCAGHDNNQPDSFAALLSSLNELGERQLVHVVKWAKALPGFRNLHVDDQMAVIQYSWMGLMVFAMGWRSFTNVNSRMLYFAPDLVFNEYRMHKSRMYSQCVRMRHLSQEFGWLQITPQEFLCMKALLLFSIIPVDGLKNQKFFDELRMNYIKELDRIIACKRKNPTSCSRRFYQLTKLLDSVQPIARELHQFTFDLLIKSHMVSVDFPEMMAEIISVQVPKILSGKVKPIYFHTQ
Method: In addition to the foregoing, the androgenic potency and relative binding affinity to the androgen receptor of several free alcohols after subcutaneous administration of their corresponding esters was also determined.

## C[C@@H]1CC2=CC(=O)CC[C@@H]2[C@@H]2[C@@H]1[C@@H]1CC[C@H](O)[C@@]1(C)C[C@@H]2C
other
  melting point: 155 to 157 °C

## CCCCC1CCC(C(=O)O[C@H]2CC[C@H]3[C@H]4[C@H]([C@H](C)C[C@]23C)[C@H]2CCC(=O)C=C2C[C@H]4C)CC1 (stereo partly drawn) [CDB-4386, 7α, 11α-Dimethyl-19-nortestosterone-17β-bucyclate, reference compound]
Ventral prostate weight [1]; subcutaneous injection daily for 7 days in 10% ethanol/sesame oil, ventral prostate weight
  activity after subcutaneous administration (in words): weak activity
Ventral prostate weight [2]; 0.6 mg in 0.2 ml, both oily and aqueous carriers, evaluation discontinued at 8 weeks, FIG. 8
  ventral prostate weight over time after single subcutaneous injection (in words): inactive
Ventral prostate weight [2]; 0.6 mg/0.2 ml, aqueous suspension or sesame oil, ventral prostate weight
  activity in potency and duration after subcutaneous injection (in words), FIG. 5: relatively low activity

## C[C@]1(O)CC[C@H]2[C@@H]3CCC4=CC(=O)CCC4=C3C=C[C@@]21C [methyltrienolone]
Ventral prostate weight [1]
  Androgenic Potency (activity of corresponding alcohol): 5.0
Androgen receptor
  Relative Binding Affinity (activity of corresponding alcohol): 100%

## CCCCC1CCC(C(=O)O[C@H]2CC[C@H]3[C@@H]4CCC5=CC(=O)CC[C@]5(C)[C@H]4CC[C@]23C)CC1 (some centres unmarked) [testosterone bucyclate, Testosterone bucyclate, reference compound]
Ventral prostate weight [1]
  Androgenic Potency (activity of corresponding alcohol): 1.0 (assigned)
Ventral prostate weight [2]; 1.0 mg/0.2 ml, aqueous suspension, ventral prostate weight
  potency and long-term activity after subcutaneous injection versus 0.6 mg CDB-4386A in aqueous suspension (in words), FIG. 5: significantly less
